Test results: patent US6679922B1, “Pesticide protective articles” (priority 1998, dated 2004)
“And” between values parts separate entries of the source, which are not always exact repeats. Equal entries are not always repeated.

Key:
[1] = Pesticide reduction at various pesticide/chlorine ratios; details: Pesticide/Chlorine Ratio 1:4
Text: In certain aspects, the concentration of the pesticide (e.g., methomyl) that was exposed to the fabric was proportional to the percent reduction of the pesticide. Without being bound by a particular theory, it is believed that the pesticide/halamine ratio is more critical to reduction than the actual contact time of the pesticide with the fabric. A pesticide to halamine ratio of about 10:1 to about 1:10 is suitable for the present methods, preferably, a ratio of about 5:1 to about 1:5 is used and, more preferably, a ratio of about […] is used.

[2] = Detoxification of pesticides on cotton/polyester fabrics treated with DMDMH and chlorine bleach, percentage reduction by GC; details: 6% DMDMH, 5 min contact
Method: Polyester/cotton fabrics were washed in a domestic washing machine at 50° C. prior to the actual treatment of the functional compounds.
The grafting of hydantoin ring onto the cotton/polyester fabrics was carried out using a wet finishing process. The weighed fabrics were submerged into an aqueous 6% (w/w) DMDMH solution for 5 min. and then wringed through a padder to secure a wet pickup of 70-100% through a 2 dip-2 nip cycle. These wet fabrics were then oven-dried at 85° C. for 5 min. and cured at 150° C. for 5 min. Following this, the fabrics were washed in water at 50° C. for 30 min. to remove any excess chemicals on the surface of the fabrics.
After the wet finishing process, the treated fabrics were bleached with solutions containing 0.01% and 0.1% (w/v) active chlorine content. The treated fabrics were submerged into aqueous bleach solution at one of the specified concentrations at 25° C. for 15 min. Then, the fabrics were air dried and stored at standard condition (25° C., 65% relative humidity). The chemically finished fabrics were then cut into 3×3 inches square swatches for exposure to pesticides in the subsequent testing.
Methomyl and aldicarb were dissolved in methanol at three different concentrations: 250, 500 and 1000 ppm. One mL of one of these pesticide solutions was directly loaded onto a fabric swatch. A contact time of 5 min. was allowed before the exposed fabric was extracted in organic solvent for detoxification assessment and degradation analysis. Fabrics that were not treated with DMDMH and bleach were also used as control samples.
The extraction of the exposed swatches was done by soaking a swatch into an initial volume of 50 mL ethyl acetate for 15 min. with vigorous agitation. The extraction was repeated with another 50 mL of ethyl acetate; the combined 100 mL of the extracted solvent was reduced to 2 mL in volume by rotor-evaporation under partial vacuum at 40° C. To this 2-mL sample, 1 μL of 2-ethyl-5-methyl pyridine was added as an internal standard for quantitation during the chromatographic analysis. After which, 1 μL of the extracted sample was injected into a gas chromatograph.
Gas chromatography was performed on a Hewlett Packard 5890 series II GC, equipped with a nitrogen-phosphorus detector (NPD), using a 15 m×0.25 mm I.D. DB-1 column, 0.25 μm film (J&W Co.). The temperature program was initially set at 100° C. for 3 min., raised at a rate of 7° C./min. to 250° C. and held for 5 min. The injector and detector were set at 250° C. and 280° C. respectively. Helium was used as the carrier gas at a flow rate of 0.84 mL/min; hydrogen flow rate was 2.98 mL/min; nitrogen flow rate was 29.16 mL/min. A split injection was used at a split ratio of 25:1. The responses of the resulting peak areas and relative peak areas were integrated and recorded using a HP 3396 II integrator. For each sample, at least three or more repetitions at each condition were carried out.
Using the materials and methods sets forth above, three different concentrations of methomyl were detoxified by halamine structures on the fabrics. Relative peak area response factors (peak area response of pesticide divided by peak area response of internal standard) of the control fabrics were used to determine the original amount of pesticide on the fabrics at 0% reduction. […] After this difference was divided by the original amount, it was expressed as the percentage reduction of pesticide at those various concentrations.

[3] = cited from earlier work
[4] = chlorine/methomyl ratio of 10 to 1; cited from earlier work
[5] = test system: male rats; details: cited from earlier work

| Structure (SMILES) | Pesticide Reduction (%) [1] | percentage reduction of pesticide ([2]; 250 ppm pesticide, 0.01% active chlorine treatment) | percentage reduction of pesticide ([2]; 250 ppm pesticide, 0.1% active chlorine treatment) | percentage reduction of pesticide ([2]; 500 ppm pesticide, 0.1% active chlorine treatment) | percentage reduction of pesticide ([2]; 1000 ppm pesticide, 0.01% active chlorine treatment) | percentage reduction of pesticide ([2]; 1000 ppm pesticide, 0.1% active chlorine treatment) | Vapor Pressure mm Hg (25-30° C.) [3] | disappearance in aqueous solution [4] | Toxicity, mg/kg (LD50, male rats) [5] |
| --- | --- | --- | --- | --- | --- | --- | --- | --- | --- |
| CNC(=O)Oc1cccc2ccccc12 [Carbaryl] | 8.02% | – | – | – | – | – | – | – | – |
| CNC(=O)Oc1cccc2c1OC(C)(C)C2 [Carbofuran] | 13.82% | – | – | – | – | – | – | – | – |
| CNC(=O)ON=C(C)SC [Methomyl, S-methyl N-(methyl carbamoyloxy) thioacetimidatel] | 79.52% | 9.35% and 9.4% | 19.9% | 18.6% | 4.43% and 4.4% | 11.63% and 11.6% | 5 × 10^−5 mm Hg | disappear rapidly | 21 mg/kg |
